Assays:
[1] = test system: C57BL/6j mice; experiment: Wheel running jet-lag experiment, 8 h phase advance or delay; assay type: in vivo, mouse; conditions: for With Pentostadin Cell Assay: Dose effect: 15 mg/kg
Experimental: Wheel running experiment: Male C57Bj/6 mice at 7 w old were purchased from the Nanjing Biomedical Research Institute of Nanjing University introduced from Jackson Laboratory, housed in individually wheel-running cage in a temperature- and humidity-controlled SPF facility, with ad libitum access to food and water. The animals were entrained under 12 h light/dark photoperiod for two weeks to synchronize the endogenous circadian clock of the mice to the ambient light-dark cycle, light intensity is about 50˜100 lux. After synchronization, light-dark cycles were 8-hr phase-advanced or phase-delayed. On the day of light-dark cycle was shifted advance, mice were firstly fasted at CT 3, then 15 mg/kg bw CA03, 15 and 30 mg/kg bw pro-CA03, 15 and 30 mg/kg bw pro-CA04 or DMSO were intraperitoneal injection at CT 12, and light on time (CT 0) was shifted from 7 am to 11 pm), finally re-feed and inject drug again at CT 23 of the old light-dark cycle. CA03 and pro-CA04 were firstly dissolved in DMSO to the concentration of 200 μg/μl, then dilute with saline to the final concentration of 1000 μg/ml for intraperitoneal injection. Pro-03 was firstly dissolved in DMSO to the concentration of 200 μg/μl, then dilute with 2% tween80 (in sterilized water) to the final concentration of 1000 μg/ml for intraperitoneal injection. On the day of light-dark cycle was shifted delayed, mice were firstly fasted at ZT 3, then 15 mg/kg bw CA03, 15 and 30 mg/kg bw pro-CA03, 15 and 30 mg/kg bw pro-CA04 or DMSO were intraperitoneal injection at CT 12, and light off time (CT12) was shifted from […] to 3 am), finally re-feed and inject drug again at CT 23 of the old light-dark cycle. Locomotor activity was recorded in 10-min bins wheel running (Actimetrics), and the data obtained were analysed with Clocklab software (Actimetrics). All animal experimental procedures were performed in accordance with the protocol approved by the Institutional Animal Care and Usage Committee (IACUC) of the National Institute of Biological Sciences, Beijing.
Under a standard jet-lag protocol {Yamaguchi, 2013}, wild-type C57BL/6j mice usually take ˜10 d to adapt to 8 h phase advance. […] Similarly, the drug treated mice adapt faster to the phase delay (FIG. 2D&2E).
To test whether cordycepin function in vivo, we firstly tested luciferase signal level by live imaging of Per2:LUC mice after intraperitoneal injection of 15 mg/kg cordycepin or DMSO. We found cordycepin induce more than 4 folds increase of luciferase signal in liver when compared with DMSO control (A). […] We also reconfirmed endogenous transcription rate of core clock genes by measuring the pre-mRNA with qPCR in the liver (B). We examined RRE genes (including Bmal1, Clock, Npas2, Cry1 and Nfil3), internal control genes (including Gapdh, Tbp and Actin) and E-box genes (including Per1, Per2, Dbp and Nr1d1). We designed at least 2 primers for each gene. […] Prior evaluation the jet-leg cure ability of cordycepin, we detected whether cordycepin and it's prodrug pro-CA03 can penetrate BBB. We injected cordycepin or pro-CA03 via tail vein and time course sampled CSF and analyzed cordycepin pro-CA03 level with HPLC-MASS method. […] Finally we evaluated the jet-leg cure ability of cordycepin, pro-CA03 and Pro-CA04 with mice behavioral experiment. Wild-type C57BL/6j mice typically take ˜10 days to adapt to an 8 h phase advance. […]

[2] = test system: SCN culture slice; experiment: Ex vivo SCN slice culture from Per2::LUC mice, lumicycle; assay type: cell-based, mouse
Text: Tissue culture, drug treatment and Real-Time Monitoring of Circadian Oscillations: 8 week-old male mPer2 Luciferase knockin mice were Sacrificed cervical dislocation. Then wipe the skin and neck with cotton containing 70% ethanol in a sterile hood. For SCN slice culture, firstly remove the eye balls from the head with scissors, decapitate and cut the skin. Then open the skull, remove all bone until the olfactory bulbs can be seen, cut the optic nerve between the olfactory bulbs and the hemispheres, and finally harvest the whole brain into ice cold HBSS. Trim the brain in HBSS by removing the cerebellum and olfactory bulbs. Attach the brain to a sample tray by glue with the rostral tip upwards and ventral surface closest to the cutting blade, then immediately fill the tray with ice cold HBSS and set the tray to the vibratome. Set the vibratome frequency at the maximum and the speed to the medium. To reach the SCN area quickly, the start cutting off thicker sections should be 500-800 μm. Reduce the sections thicker to 100 μm when the optic chiasm becomes wider. When the two SCN nuclei start to appear, collect the slice with transfer pipettes and check slices under dissecting microscope. […] Data was extract and analyzed with LumiCycle Analysis software. […]

[3] = test system: kidney clocks; experiment: Phase shift of kidney clock; assay type: cell-based
[4] = test system: E-box genes; experiment: Nascent pre-mRNA sequencing (nascent-seq) of U2OS cells; assay type: cell-based, human
Text: Manipulating DRB's well characterized target CDK9 protein with AID degron mimics the phase shift curve of DRB in Per2-dLuc cells. […] Using nascent seq experiment, we found DRB treatment repress majority genes expression, but exclusively activates E-box containing gene both in vitro (FIG. 4).
(red color). […] Thus, perhaps the partial inhibition of CDK9 stimulates, rather than represses, the transcription of E-box genes. Right napel is UCSC genome browser views of E-box containing (NR1D1 and DBP) or non-E-box containing (BMAL1 and CRY1) clock genes

[5] = test system: PER2 locus; experiment: ChIP-qPCR analysis for the PER2 locus; assay type: cell-based
Experimental: Human and mouse circadian oscillators are driven by interlocked transcriptional and translational feedback loop. Bmal1 and Clock are transcriptional factors and function as positive arm to active negative arm genes transcription, including Per and Cry. Per and Cry are transcriptional repressor and feedback repress Bmal1/Clock's transcription activity thereby inhibit its own transcription. […] We also confirmed this by ChIP-qPCR experiments. Cordycepin treatment 30 min immediately release Cry1/2 and Ruvbl2 binding at Per2 gene promoter.

[6] = test system: Per2:luc U2OS cells; experiment: Real-time monitoring of circadian oscillation in lumicycle, Per2:luc U2OS cells; assay type: cell-based, human; conditions: for effect on the clock phase: in words
Experimental: Cell culture, drug treatment and Real-Time Monitoring of Circadian Oscillations: Per2-Luc reporter U2OS cells (D15) and Bmal1-Luc reporter U2OS cells (C26) cells were kept in DMEM medium (Gibco), supplemented with 10% FBS (Gibco) and 1% penicillin streptomycin mixture (Gibco). For Circadian Oscillation monitored with lumicycle (Actimetrics), cells were seeded at the density of 10^6 per 3.5 cm dish (Z688851-30EA). The medium was changed into XM medium (PH7.2, 10 mM HEPES, 350 mg/I bicarbonate, 1×B27, 100 IU/ml penicillin, 100 μg/ml streptomycin, 10 μg/ml gentamycin, and 100 μM d-Luciferin) 2 days after cell seeding. 3.5 cm dish was then sealed with high-vacuum grease (Dow Corning) and microscope cover glass, and transferred into lumicycle which was placed in an incubator (37° C.). For Drug treatment, 3.5 cm dish was taken out from lumicycle quickly at indicated time. After chemical was added into the medium, the dish was sealed again and put back into lumicycle. For Circadian Oscillation monitored with Tecan (Perkinelmer), cells were seeded at the density of […] per well for 384-well plate (CLS3610-48EA). 2 days later, the medium was changed into premixed XM medium with different chemicals with or without pentostatin (5 μg/ml). The plate was then sealing with sealing film (Sangon Biotech) and put into Tecan. Data from cells were collected in the Tecan luminometer at 37° C. for 5˜7 days.
The inventors conducted a chemical screen using the human osteosarcoma U2OS cell line so as to discover small molecules that modify the phase of the intracellular clock in mammals. In the primary screen, the inventors used two reporter lines of U2OS harboring a luciferase gene under control of either Per2 or Bmal1 promoter (named Per2-dLuc or Bmal1-dLuc cells), and set the threshold for at least 6 h phase-changes with no apparent amplitude-reduction in both cell lines. […] An institutional pilot chemical library consisting of approximately 10,000 small molecules was applied in this study. […] The inventors set to allow a free-run of the clock before administration of the compound over the course in order to eliminate the possibility that this phase-changing phenomenon was due to a combinative phenotype of medium-change plus the compound effect.
Circadian clock is a transcriptional based feedback loop, however different clock genes contain different cis-element and may show different response to the same stimulation. […] Since the close similar structure with adenosine and potential function of inhibiting transcription by preventing mRNA elongation, we tested whether adenosine and other deoxynucleoside could shift circadian phase. […] Therefore we further tested whether cordycepin utilize adenosine transporter to enter cell or utilize adenosine deaminase to degrade.
One prominent character of zeitgeiber is phase dependent function. Therefore, we further tested whether cordycepin also has the character.

[7] = test system: Per2-Luc reporter U2OS cells (D15); experiment: Circadian phase shift cell assay in D15 cells, 384 well plate, Tecan, with or without pentostatin; assay type: cell-based, human; conditions: for minimal effective concentration: Homo sapiens, U2OS, without pentostatin, read-out: Cell Assay; for minimal effective concentration / With Pentostadin Cell Assay: concentration that shifts the circadian phase; for With Pentostadin Cell Assay: pentostatin 5 μg/ml

In the case of CCCCCCCC(=O)Nc1ncnc2c1ncn2[C@@H]1O[C@H](CO)[C@H](O)[C@H]1O [Pro-CA04, N-octanoyl-9-(P-D-xylofuranosyl)-adenine], the “adaption time after 8 phase advance” value ([1]; DMSO 10 days) is reported as ~5 days.
OC[C@H]1O[C@@H](n2cnc3cc(Cl)c(Cl)cc32)[C@H](O)[C@@H]1O [DRB, 5,6-dichloro-1-β-D-ribobenzimidazole] was tested, and the “clock phase of SCN slice” value [2] was “shift the phase”, the “clock phase of kidney” value [3] was “shift the phase” and the “nascent transcription of E-box genes” value ([4]; 1, 2, 4 h post administration) was “all up-regulated”. For the same compound, the “newly synthesized mRNA of the majority of genes” value ([4]; within the first hour) was “reduced”, the “binding of BMAL1 at PER2 locus” value [5] was “remained unchanged” and the “binding of CRY2/RUVBL2 at PER2 locus” value [5] was “released”.
Nc1ncnc2c1ccn2[C@@H]1O[C@H](CO)[C@@H](O)[C@H]1O [7-deazaadenosine, tubercidin] was tested, and the “effect on the clock phase” value [6] was “can shift circadian phase”.
CCCCCCCC(=O)Nc1ncnc2c1ncn2[C@@H]1O[C@H](CO)C[C@H]1O was tested, and the “With Pentostadin Cell Assay: Dose effect” value [1] was “Dose effect (15 mg/kg)”.
OC[C@H]1O[C@@H](n2cnc3c2NC=NC[C@H]3O)C[C@@H]1O [pentostatin] was tested, and the “effect on the clock phase” value [6] was “does not affect the clock phase” and the “effect on the clock phase” value ([6]; listed as Pentostatin) was “does not affect the clock at all”.
In the case of Nc1nccc2c1ncn2[C@@H]1O[C@H](CO)[C@@H](O)[C@H]1O [3-deazaadenosine, 3-Deazaadenosine], the “effect on the clock phase” value [6] is reported as “can shift circadian phase”.
For Nc1ncnc2c1ncn2[C@@H]1O[C@H](CO)[C@@H](O)[C@H]1O [adenosine], the “effect on phase effect induced by cordycepin” value ([6]; excessive amount) was “inhibits the phase effect induced by cordycepin” and the “effect on the clock phase” value [6] was “not”.
For CCCCCCCC(=O)Nc1ncnc2c1ncn2[C@@H]1O[C@H](CO)[C@H](O)[C@H]1O [drawing 329], the “With Pentostadin Cell Assay: Dose effect” value [1] was “Dose effect (15 mg/kg)”.
With Nc1nc(Br)nc2c1ncn2[C@@H]1O[C@H](CO)C[C@H]1O the minimal effective concentration [7] was > 500 µM and the “With Pentostadin Cell Assay” value [7] was 100 µM.
In the case of [2H]c1nc(N)c2nc([2H])n([C@@H]3O[C@H](CO)[C@H](O)[C@H]3O)c2n1 [NQZ-198], the “amplitude effect, Per2:luc signal versus control” value ([7]; under the concentration of 100 μM) is reported as “more than two fold of control”.
In the case of Nc1ncnc2c1ncn2[C@@H]1O[C@H](CO)[C@H](O)[C@H]1O [(3′R)-adenosine, 3′-(R)-adenosine], the “effect on the clock phase” value [6] is reported as “can shift circadian phase”.
In the case of Nc1ncnc2c1ncn2[C@@H]1O[C@H](CO)CC1O (stereo partly drawn), the minimal effective concentration [7] is reported as 25 µM and the “With Pentostadin Cell Assay” value [7] is reported as 0.5 µM.
In the case of Nc1nc(F)nc2c1ncn2[C@@H]1O[C@H](CO)C(O)C1O (stereo partly drawn), the minimal effective concentration [7] is reported as 50 µM.
Nc1ncnc2c1nc(Br)n2[C@@H]1O[C@H](CO)C[C@H]1O was tested, and the minimal effective concentration [7] was > 500 µM and the “With Pentostadin Cell Assay” value [7] was 100 µM.
With Nc1ncnc2c1ccn2[C@@H]1O[C@H](CO)CC1O (stereo partly drawn) the minimal effective concentration [7] was 200 µM and the “With Pentostadin Cell Assay” value [7] was 25 µM.
With Nc1ncnc2c1ncn2[C@@H]1O[C@H](CO)C(O)C1O (stereo partly drawn) the minimal effective concentration [7] was 12.5 µM and the “With Pentostadin Cell Assay” value [7] was 0.5 µM.
Compound OC[C@H]1O[C@@H](n2cnc3c(Nc4cccc(O)c4)ncnc32)C(O)C1O (stereo partly drawn) has a minimal effective concentration [7] of 200 µM.
Work on OC[C@@H]1CC(O)[C@H](n2cnc3cc(Cl)c(Cl)cc32)O1 (stereo partly drawn) yielded a minimal effective concentration [7] of 10 µM.

From patent US12667584B2, “Adenosine analog and its use in regulating the circadian clock” (NATIONAL INSTITUTE OF BIOLOGICAL SCIENCES, BEIJING, priority 2017, dated 2026)
